Where “and” joins values, the source holds several entries; their conditions need not be identical. Equal entries are not always repeated. Where two headings read alike, the source gives them in different places.
Experiments:
[1] = tested on: cultured human mast cells (CHMC); experiment: CHMC low cell density ionomycin activation: tryptase assay; type: cell-based; conditions: low cell density; read-out: CHMC Ionomycin Tryptase
[2] = tested on: bone marrow derived mast cells (BMMC); experiment: BMMC high cell density IgE activation: hexosaminidase; type: cell-based, mouse; conditions: high cell density; read-out: BMMC anti-IgE Hexos.
Experimental: After sensitizing, cells are counted, pelleted (1000 rpm, 5-10 minutes), and resuspended at 1-3×10^6 cells/ml in MT buffer. Add 100 ul of cell suspension to each well and 100 ul of compound dilutions. The final vehicle concentration is 0.5% DMSO. Incubate at 37° C. (5% CO2) for 1 hour. After 1 hour of compound treatment, stimulate cells with 6× stimulus (60 ng/ml DNP-BSA). Mix wells with the cells and allow plates to incubate at 37° C. (5% CO2) for one hour. After 1 hour incubation, pellet cells (10 minutes, 1000 RPM) and collect 200 ul per well of the supernatant, being careful not to disturb pellet, and transfer to a clean tube or 96-well plate. Place the supernatant plate on ice. During the 4-5 hour step (see next) perform the hexosiminidase assay. Resuspend cell pellet in 240 ul WEI-conditioned media containing 0.5% DMSO and corresponding concentration of compound. Incubate BMMC cells for 4-5 hours at 37° C. (5% CO2). After incubation, pellet cells (1000 RPM, 10 minutes) and collect 225 ul per well and place in −80° C. until ready to perform ELISAS. ELISAS are performed on appropriately diluted samples (determined empirically for each donor cell population so that the sample measurement falls within the standard curve) following the supplier's instructions.
Add 50 uL of BMMC cell supernatant (see above) to the hexoseaminidase substrate, place at 37° C. for 30 minutes and read the plate at 5, 10, 15, and 30 minutes on a spectrophotometer.

[3] = tested on: cultured human mast cells (CHMC); experiment: CHMC low cell density IgE activation: tryptase assay; type: cell-based; conditions: low cell density; read-out: CHMC anti-IgE Tryptase
Method in brief: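 Cells pelleted, taken up in warm MT, plated at 1000-1500/well, held 1 hr 37° C. Anti-IgE added, 30 min 37° C. Plates spun; supernatant mixed with tryptase substrate, 30 min RT.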

[4] = tested on: Primary human B-cells; experiment: Primary B-cell activation (α-IgM, CD69 upregulation); type: cell-based; conditions: read-out: 1° B-Cell CD69 IC50
Experimental: Primary human B-cells were isolated from buffy coat, the white cell layer that forms between the red cells and the […] when anti-coagulated blood is centrifuged, or from fresh blood using CD19-Dynal® beads and a FACS. Buffy coat was obtained from the Stanford Medical School Blood Centre, prepared on the same day by the blood bank, stored and transported cold (with ice). The buffy coat (approx 35 mL) was placed in a 500 mL conical sterile centrifuge pot and cooled on ice, then diluted with cold PBS containing 0.2% BSA (Sigma: A7638) and sodium citrate (0.1%, Sigma: S-5570) (P—B—C) to a total volume of 200 mL and mixed gently. Fresh blood was collected from donors in 10 mL vacutainers containing heparin (1 vacutainer collects approximately 8.5 mL blood). The blood was cooled on ice, transferred into 50 mL falcon tubes (20 mL/tube) or a 500 mL conical sterile centrifuge pot, and diluted with an equal volume P—B—C.
25 mL diluted blood or buffy coat was layered onto 15 mL cold ficoll and placed back on ice. The ficoll layered blood was centrifuged (Beckman GS-6R) for 45 minutes at 2000 rpm, 4° C. to separate the Peripheral Blood Mononuclear Cells (PBMC) from the Red Blood Cells (RBC) and granulocytes. The top aqueous layer was then aspirated until 1 inch above the PBMC layer. The PBMCs were transferred from every 2 ficoll tubes into one clean 50 mL falcon tube (=approx 10 mL/tube). The transferred PBMCs were diluted 5× with icecold PBS with 0.2% BSA (P—B) and centrifuged for 20 min at 1400 rpm and 4° C. The supernatant (this may be cloudy) was then aspirated and the PBMCs resuspended into 25 mL P—B and the cells counted (using a 1:5 dilution) and kept on ice.
The cells were then positively selected using anti-CD 19 antibody coupled to magnetic beads (Dynal®) as per manufacturer's instructions. The approximate required amount of CD19-Dynal® beads (CD19-coated dyna beads M-450 (pabB), Dynal®) was calculated by estimating the number of B-cells as 5% of PBMCs counted and adding approximately10 beads per cell from the bead stock (4×10^8 beads/mL). The CD19-Dynal® beads were washed 2× in P—B in a 5 mL tube using the Dynal® magnet, then added into the suspended PBMCs. This mixture was then passed through the Dynal® magnet and washed several times to separate the bead-bound cells.
After separation, the beads and antibody were removed using Dynal® CD19-DETACHaBEAD® for 45 min at 30° C. Yield is typically 2×10^7 B-cells per buffy coat. B-cells were washed and resuspended as 1E6 cells/mL in RPMI1640+10% FBS+Penicillin/[…]+1 ng/mL IFNα8. Cells were rested overnight at 37° C. and 5% CO2.
The following day, cells were washed and resuspended in RPMI+2.5% FBS to 1×10^6 cells/mL. Cells were then aliquoted into a V-bottom 96-well plate (Corning) at 65 uL cells per well. By robot, 65 uL of a 2× compound was added to the cells with final concentration of DMSO at 0.2%, and incubated for 1 hr at 37° C. Cells were then stimulated with 20 uL 7.5× α-IgM from Jackson laboratories (final 5 ug/mL) for 24 hrs. At day 3, the cells were spun down and stained for CD69 and analyzed by FACS gated on the live cells (by light scatter).
Varied concentrations of compound were compared to solvent only to determine the inhibition of B-cell activation IC50 of each compound.

[5] = tested on: Human Jurkat T-cells (clone N); experiment: Jurkat T-cell activation (anti-TCR, CD69 upregulation); type: cell-based
Method in brief: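 Jurkat cells in RPMI + 5% FBS preincubated with compound 1 h at 37 °C, then stimulated with anti-TCR C305 at 500 ng/ml for 20 h. CD69 surface expression stained with anti-CD69-APC and read by flow cytometry; IC50 versus solvent-only control.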

[6] = Mouse Reverse Passive Arthus reaction (RPA reaction); type: in vivo, C57BL/6 mice; conditions: oral, 200 mg/kg
Experimental: In this model system, test compounds are administered at several timepoints prior to administration of Abs and Ags. A solution of rabbit anti-OVA IgG (50 μg in 25 μl/mouse) is injected intradermally, and immediately following is an intravenous injection of chicken egg albumin (20 mg/kg of body weight) in a solution containing 1% Evans blue dye. The degree of edema and hemorrhage is measured in the dorsal skin of C57BL/6 mice using the Evan's Blue dye as an indicator of local tissue damage. Purified polyclonal rabbit IgG is used as a control.
Pretreatment time, in which the test compounds are administered prior to Ab/Ag challenge, depends on the pharmacokinetic (PK) properties of each individual compound. Four hours after induction of Arthus reaction, mice are euthanized, and tissues are harvested for assessment of edema.

[7] = target: T1, Syk kinase (Homo sapiens, UniProt P43405); experiment: Syk kinase biochemical fluorescence polarization assay; conditions: isolated Syk kinase, fluorescence polarization, 4 uM ATP
T1 construct: purchased Upstate, Lake Placid NY

[8] = tested on: IgE-induced degranulation of tissue mast cells; experiment: Mouse model of passive cutaneous anaphylaxis (PCA); type: in vivo; conditions: positive controls
Experimental: This model provides a direct measure of IgE-induced degranulation of tissue mast cells. In this model, IgE primed animals are exposed to an allergen challenge, and the change in permeability of dermal vasculature that results from histamine release from mast cells is measured by change in the amount of dye leakage into surrounding tissue. Inhibition of mediator release by compounds that modulate mast cell degranulation is easily measured by extracting the dye from the tissue.
In the PCA assay mice are passively sensitized by intradermal injection with anti-dinitrophenol (DNP) IgE antibodies (Day −1). At predetermined times animals are treated with the test agent (Day 0). The modulatory effect of the agent on cutaneous mast cell degranulation is measured following intravenous injection of DNP conjugated to human serum albumin (HSA-DNP), together with Evans blue dye. The resulting cross-linking of the IgE receptor and subsequent mast cell degranulation-induced increase in vascular permeability is determined by measuring the amount of dye extravasation into the tissue. Dye is extracted from the tissue by formamide, and the absorbance of this extract is read at 620 nm.

Row | Structure (SMILES) | IC50 [1] | IC50 [2] | also measured
1 | CNC(=O)COc1cccc(Nc2ncc(F)c(Nc3ccc4c(c3)NC(=O)C(C)(C)O4)n2)c1 [Compound R940323] | – | – | IC50 [4]: 0.11 µM; IC50 [5]: 0.557 µM; inhibition of edema formation ([6]; 60 minutes prior to challenge): 32.4%; % inhibition to vehicle control Edema Size ± SEM ([6]; pretreatment time 0.5 hrs): 5.5 ± 9.3%; % inhibition to vehicle control Edema Size ± SEM ([6]; pretreatment time 1 hrs): 32.4 ± 13.0% and 32.4%; % inhibition to vehicle control Edema Size ± SEM ([6]; pretreatment time 2 hrs): 26.9 ± 11.2%
2 | CCOc1ccc(Nc2nc(Nc3ccc4c(c3)OCCO4)ncc2F)cc1 [Compound R926213] | – | – | IC50 ([4]; Homo sapiens, B-cell): 44 µM; IC50 ([5]; Homo sapiens, Jurkat): 8.86 µM
3 | CN(C)CCOC(c1ccccc1)c1ccccc1 [diphenhydramine, reference compound] | – | – | PCA response [8]: inhibit the PCA response
4 | CNC(=O)COc1cccc(Nc2ncc(F)c(Nc3ccc(OC(F)(F)F)c(C(=O)NC)c3)n2)c1 [Compound R950407] | > 10 µM | > 10 µM | –
5 | CC1(C)Oc2ccc(Nc3nc(Nc4ccc5cc[nH]c5c4)ncc3F)cc2NC1=O [Compound R926982] | > 10 µM | – | IC50 [4]: 0.394 µM; IC50 [7]: 0.028 µM; IC50 [3]: 0.12 µM
6 | CNC(=O)COc1cccc(Nc2ncc(F)c(Nc3ccc(OC(F)(F)F)c(C(=O)NCCN)c3)n2)c1 [Compound R950406] | > 10 µM | > 10 µM | –
7 | CCOC(=O)CCn1ncc2cc(Nc3ncc(F)c(Nc4ccc(OC)nc4OC)n3)ccc21 [Compound R935381] | > 10 µM | 7.74 µM | –
8 | CNC(=O)COc1cccc(Nc2ncc(F)c(Nc3ccc(N4CCOCC4)cc3)n2)c1 [Compound R945367] | > 10 µM | 1.29 µM | –
9 | COc1cc(Nc2ncc(F)c(Nc3ccc4c(c3)NC(=O)[C@H](C)O4)n2)cc(OC)c1 [Compound R908953] | – | – | IC50 [4]: 1.98 µM; IC50 [7]: 0.017 µM
10 | CNC(=O)COc1cccc(Nc2ncc(F)c(NC3CC3)n2)c1 [Compound R945372] | > 10 µM | 0.923 µM | –
11 | CNCCNC(=O)c1cc(Nc2nc(Nc3cccc(OCC(=O)NC)c3)ncc2F)ccc1OC(F)(F)F [Compound R950408] | > 10 µM | 4.82 µM | –
12 | Oc1c(Cl)cc(Nc2ncc(F)c(Nc3ccc(OC(F)(F)F)c(Cl)c3)n2)cc1Cl [Compound R927046] | > 10 µM | 2.4 µM | –
13 | CNC(=O)COc1cccc(Nc2ncc(F)c(Nc3ccc(OC(F)(F)F)c(C(=O)N4CCCCC4)c3)n2)c1 [Compound R950409] | > 10 µM | 3.24 µM | –
14 | COc1ccc(Nc2nc(Nc3cc(Cl)c(O)c(Cl)c3)ncc2F)cc1Cl [Compound R927044] | > 10 µM | 4.28 µM | –

Continued, in another order:

Row | IC50 [1] | IC50 [2] | Structure (SMILES) | also measured
15 | > 10 µM | 0.217 µM | CNC(=O)CCn1ncc2cc(Nc3ncc(F)c(Nc4ccc(F)c(F)c4)n3)ccc21 [Compound R935385] | –
16 | > 10 µM | > 10 µM | CNC(=O)COc1cccc(Nc2ncc(F)c(Nc3ccc(OC(F)(F)F)c(C(=O)NC[C@@H](O)CO)c3)n2)c1 [Compound R950410] | –
17 | > 10 µM | > 10 µM | CCOC(=O)CCn1ncc2cc(Nc3ncc(F)c(Nc4ccc(F)c(F)c4)n3)ccc21 [Compound R935384] | –
18 | > 10 µM | > 10 µM | Fc1cnc(Nc2ccc(OCc3ccccc3)c(Cl)c2)nc1Nc1ccc(OCc2ccccc2)c(Cl)c1 [Compound R926965] | IC50 [3]: > 10 µM
19 | > 10 µM | 1.71 µM | CNC(=O)COc1cccc(Nc2ncc(F)c(Nc3ccc(N4CCN(C(=O)OC)CC4)cc3)n2)c1 [Compound R945368] | –
20 | > 10 µM | 0.2 µM | CNC(=O)CCn1ncc2cc(Nc3ncc(F)c(Nc4ccc(Cl)cc4)n3)ccc21 [Compound R935382] | –
21 | > 10 µM | 1.27 µM | CC(=O)N(C)c1ccc(Nc2ncc(F)c(NC3CC3)n2)cc1 [Compound R945369] | IC50 [7]: 1.85 µM
